SMILES strings stand for the structures.

In series [1] the target is T1, C-X-C chemokine receptor type 4 (Homo sapiens, UniProt P61073). Description: Antagonist activity at CXCR4 in human CEM-CCRF cells expressing CD4 assessed as inhibition of SDF-1-induced Ca2+ signaling. It counts as functional, cell-based.
The nature of series [2]: Cytotoxicity against human MT4 cells expressing CD4 and CXCR4. It counts as cell-based.
Series [3] has as its system Human immunodeficiency virus 1. Briefly: Antiviral activity against X4 tropic HIV1 NL4.3 infected in human MT4 cells expressing CD4 and CXCR4 assessed as inhibition of virus-induced cytopathicity. It counts as functional, organism-based. Conditions: Human immunodeficiency virus 1, NL4.3, MT4. (In general: Protection from cytopathic effect is a common read-out in antiviral testing.)

Series [4] in a line: Half life in dog at 5 umol/kg, iv. It counts as ADME, organism-based, Canis lupus familiaris. Conditions: in vivo.
Series [5] in a line: Oral bioavailability in dog at 12.5 umol/kg. The following applies: in vivo. It counts as ADME, organism-based, Canis lupus familiaris.
Series [6] in a line: Volume of distribution in dog at 5 umol/kg, iv. It counts as ADME, organism-based, Canis lupus familiaris. Conditions: in vivo.
Series [7] concerns the target T1, C-X-C chemokine receptor type 4. Briefly: Displacement of [125I]SDF-1 from CXCR4 in human CEM-CCRF cells expressing CD4 by liquid scintillation counting. It counts as cell-based. Background: Displacement assays read how much labelled ligand stays bound in the presence of the test substance.
The nature of series [8]: Volume of distribution in rat at 10 umol/kg, iv. It counts as ADME, organism-based. Conditions: in vivo.
Series [9] relates to Human immunodeficiency virus 1. Briefly: Antiviral activity against X4 tropic HIV1 infected in human PBMC assessed as inhibition of virus-induced cytopathicity in presence of 1 mg/mL of alpha-acid glycoprotein. It counts as functional.
Series [10] in a line: Cmax in dog at 5 umol/kg, iv. It counts as ADME, organism-based, Canis lupus familiaris. Set-up: dose 5 umol/kg, route intravenous. The following applies: in vivo.
For a further series, the system named is Canis familiaris. Briefly: (§1) AUC (0 to infinity) in dog at 5 umol/kg, iv. Set-up: dose 5 umol/kg, time infinity, route intravenous. It counts as ADME, organism-based, Canis lupus familiaris, Plasma. Conditions: in vivo.
For series [11], the system named is Human immunodeficiency virus 1. Description: Antiviral activity against X4 tropic HIV1 infected in human PBMC assessed as inhibition of virus-induced cytopathicity. It counts as functional, organism-based.
The subject of series [12] is Rattus norvegicus. Briefly: (§2) Cmax in rat at 10 umol/kg, iv. It counts as ADME, organism-based. Set-up: dose 10 umol/kg, route intravenous. The following applies: in vivo.
Series [13] deals with Rattus norvegicus. Description: (§3) AUC (0 to infinity) in rat at 10 umol/kg, iv. It counts as ADME, organism-based, Plasma. Set-up: dose 10 umol/kg, time infinity, route intravenous. Conditions: in vivo.
Series [14] concerns Rattus norvegicus. Description: (§4) Half life in rat at 10 umol/kg, iv. It counts as ADME, organism-based. Conditions: in vivo.
Series [15] is described as follows: Oral bioavailability in rat at 100 umol/kg. It counts as ADME, organism-based. The following applies: in vivo.
A short description of series [16]: Clearance in rat at 10 umol/kg, iv. Conditions: in vivo. It counts as ADME, organism-based.
A short description of series [17]: as §2. More on the design: dose 10 umol/kg, route intravenous. It counts as ADME, organism-based. Conditions: in vivo, 10 umol/kg.
Series [18] in a line: as §3. It counts as ADME, organism-based, Plasma. More on the design: dose 10 umol/kg, time infinity, route intravenous. Conditions: plasma, 10 umol/kg.
Series [19] in a line: as §4. It counts as ADME, organism-based. The following applies: in vivo, 10 umol/kg.
A short description of series [20]: Clearance in dog at 5 umol/kg, iv. The following applies: in vivo. It counts as ADME, organism-based, Canis lupus familiaris.
A short description of series [21]: as §1. It counts as ADME, organism-based, Canis lupus familiaris, Plasma. More on the design: dose 5 umol/kg, time infinity, route intravenous. The following applies: plasma, 5 umol/kg.

T1 sequence (P61073 whole entry): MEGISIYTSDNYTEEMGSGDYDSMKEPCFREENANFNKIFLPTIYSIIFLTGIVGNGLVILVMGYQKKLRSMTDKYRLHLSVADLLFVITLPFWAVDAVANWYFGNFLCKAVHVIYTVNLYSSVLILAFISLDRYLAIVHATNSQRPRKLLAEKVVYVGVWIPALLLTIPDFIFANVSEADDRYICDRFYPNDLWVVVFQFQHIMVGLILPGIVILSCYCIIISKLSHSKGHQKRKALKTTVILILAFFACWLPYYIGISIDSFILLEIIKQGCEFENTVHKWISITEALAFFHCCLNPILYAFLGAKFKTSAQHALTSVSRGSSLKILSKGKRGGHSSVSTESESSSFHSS

In the case of `NCc1ccccc1CN(Cc1nc2ccccc2[nH]1)C1CCCc2cccnc21` (configuration not stated), the half-maximal inhibitory concentration (IC50) (as a rule, the midpoint of a concentration-inhibition curve) in series [1] was determined as 28 nM.

Consider `NCc1cc(F)ccc1CN(Cc1nc2ccccc2[nH]1)C1CCCc2cccnc21` (configuration not stated), for which it took 45.6 µM to reach half-maximal cytotoxicity in [2] (CC50). The figures for the IC50 in [3] and in series [1] were 165 nM and 219 nM, respectively.

As for `NCc1cc(C(F)(F)F)ccc1CN(Cc1nc2ccccc2[nH]1)C1CCCc2cccnc21` (configuration not stated), the CC50 (as a rule, the concentration at which the toxic effect on the cells reaches its halfway point) in series [2] was found to be 26.6 µM. The half-maximal inhibitory concentration (IC50) was found to be 104 nM in [3] and 51 nM in series [1].

In turn, `COc1ccc(CN(Cc2nc3ccccc3[nH]2)C2CCCc3cccnc32)c(CN)c1` (configuration not stated) displayed a cytotoxic concentration (CC50) in series [2] of 36.5 µM. The results for the IC50 in series [3] and in [1] were 18 nM and 5 nM, respectively.

In [2], `NCc1ccc(CN(Cc2nc3ccccc3[nH]2)C2CCCc3cccnc32)c(CN)c1` (configuration not stated) came in with a CC50 of 122 µM. Besides, the half-maximal inhibitory concentration (IC50) was 2 nM in series [3] and 10 nM in series [1].

`NCc1cc(CO)ccc1CN(Cc1nc2ccccc2[nH]1)C1CCCc2cccnc21` (configuration not stated) displayed a 50% cytotoxic concentration (CC50) in series [2] of 37.5 µM. Moreover, the IC50 came to 17 nM in [3] and 11 nM in series [1].

In turn, `COCc1ccc(CN(Cc2nc3ccccc3[nH]2)C2CCCc3cccnc32)c(CN)c1` (configuration not stated) yielded a cytotoxic concentration (CC50) in [2] of 201 µM. For the same molecule, the values for the IC50 in [3] and in series [1] were 20 nM and 21 nM, respectively.

As to `NCc1cc(C(=O)O)ccc1CN(Cc1nc2ccccc2[nH]1)C1CCCc2cccnc21` (configuration not stated), in series [2], the cytotoxic concentration (CC50) was found to be 137 µM. For the same molecule, the IC50 in series [3] was 69 nM; in series [1] it was 126 nM.

For `COC(=O)c1ccc(CN(Cc2nc3ccccc3[nH]2)C2CCCc3cccnc32)c(CN)c1` (configuration not stated), the CC50 in series [2] turned out to be 42.2 µM. The IC50 in [3] was 105 nM; in series [1], 39 nM.

Molecule `NCc1cc(C(N)=O)ccc1CN(Cc1nc2ccccc2[nH]1)C1CCCc2cccnc21` (configuration not stated) displayed a half-maximal cytotoxic concentration (CC50) in series [2] of 120 µM. The IC50 in series [3] amounted to 12 nM; in [1] it was 15 nM.

Regarding `CO/N=C/c1ccc(CN(Cc2nc3ccccc3[nH]2)C2CCCc3cccnc32)c(CN)c1` (configuration not stated), the CC50 in [2] turned out to be 26.8 µM. Further, the values for the half-inhibitory concentration (IC50) in [3] and in series [1] were 22 nM and 5 nM, respectively.

On to `NCc1ncccc1CN(Cc1nc2ccccc2[nH]1)[C@H]1CCCc2cccnc21`, for which the half-life (as a rule, the time needed for the level to fall by half in the phase considered) in [4] was 342 min. Also, the bioavailability – broadly, dose-corrected exposure relative to a reference, in per cent – in [5] is 84%; in series [15], 22%. Further, the volume of distribution (Vd) (in general, the apparent volume that relates the amount in the body to the concentration in plasma or blood) amounted to 2.6 L/kg in series [6] and 6.6 L/kg in [8]. Also, the IC50 is 19.8 nM in series [7], 4.2 nM in series [3] and 9.9 nM in series [11]. The “fold change (FC)” value in series [9] stood at 24. The Cmax (in general, the maximum level reached in the sampled fluid or tissue) in series [10] was found to be 4.2 µM; in the series on Rattus norvegicus [12], 1200 nM. In addition, the figures for the AUC in the series with Canis familiaris and with Rattus norvegicus [13] were 13.5 µM·h and 5.4 µM·h, respectively. In addition, the t1/2 with Rattus norvegicus [14] came to 48 min.

In the case of `NCc1cscc1N(Cc1nc2ccccc2[nH]1)[C@H]1CCCc2cccnc21`, the half-life in series [4] was 204 min; in series [19], 102 min. Besides, the bioavailability in series [5] was determined as 9%; in series [15], 6%. Also, the Vd in series [6] was found to be 2.2 L/kg; in [8], 5.2 L/kg. For the same molecule, the IC50 in [7] came out at 88.9 nM; in [3], 0.99 nM; in series [11], 2 nM. Moreover, in series [9], the “fold change (FC)” value came out at 28. Moreover, the Cmax in series [10] came to 2.6 µM; in series [17], 1400 nM. Further, the clearance (commonly the volume of plasma or blood freed of the substance per unit of time) in [16] was 27.2 mL/min/kg. For the same molecule, the AUC (in general, the area under the concentration-time curve, a measure of exposure) with Canis familiaris was 3.7 µM·h. Moreover, the total exposure AUC(0-inf) (usually total exposure, with the tail of the curve extrapolated) in [18] was 3.7 µM·h.

Consider `NCc1cocc1N(Cc1nc2ccccc2[nH]1)[C@H]1CCCc2cccnc21`, for which the half-life in series [4] is 162 min; in series [19], 126 min. Besides, the figures for the bioavailability in series [5] and in series [15] were 28% and 17%, respectively. Further, the volume of distribution (Vd) stood at 0.7 L/kg in series [6] and 3.6 L/kg in series [8]. The IC50 in series [7] turned out to be 44.5 nM; in [3] it was 0.31 nM; in series [11], 4.1 nM. For the same molecule, the “fold change (FC)” value in [9] was found to be 17. Moreover, the Cmax was 4.7 µM in series [10] and 3000 nM in series [17]. The values for the clearance in [16] and in series [20] were 23.3 mL/min/kg and 3.7 mL/min/kg, respectively. Also, the AUC(0-inf) in series [21] was found to be 16.4 µM·h; in [18], 12.5 µM·h.

As for `NCc1ccncc1CN(Cc1nc2ccccc2[nH]1)C1CCCc2cccnc21` (configuration not stated), in [2], the midpoint of cytotoxicity, the CC50, lay at 128 µM. Also, the half-inhibitory concentration (IC50) in series [3] was found to be 124 nM; in [1], 160 nM.

For `NCc1nccnc1CN(Cc1nc2ccccc2[nH]1)C1CCCc2cccnc21` (configuration not stated), half-maximal cytotoxicity in [2] (CC50) was put at 6.1 µM. Moreover, the IC50 in series [3] is more than 1230 nM.

Consider `NCc1sccc1CN(Cc1nc2ccccc2[nH]1)C1CCCc2cccnc21` (configuration not stated), for which, in [2], the cytotoxic concentration (CC50) was determined as 31.5 µM. Moreover, the values for the 50% inhibitory concentration (IC50) in series [3] and in [1] were 14 nM and 60 nM, respectively.

As to `NCc1ccc(CN(Cc2nc3ccccc3[nH]2)C2CCCc3cccnc32)s1` (configuration not stated), in series [2], the CC50 stood at 28.5 µM. Moreover, the IC50 in series [3] was found to be 2480 nM.

In the case of `NCc1ccc(CN(Cc2nc3ccccc3[nH]2)C2CCCc3cccnc32)o1` (configuration not stated), it took 28.5 µM to reach half-maximal cytotoxicity in [2] (CC50). Moreover, the IC50 in series [3] amounted to 3570 nM.

With `NCc1ccoc1CN(Cc1nc2ccccc2[nH]1)C1CCCc2cccnc21` (configuration not stated), the CC50 in [2] worked out at 28.5 µM. Besides, the IC50 in series [3] was 0.4 nM; in series [1], 12 nM.

As to `NCc1occc1CN(Cc1nc2ccccc2[nH]1)C1CCCc2cccnc21` (configuration not stated), the midpoint of cytotoxicity in series [2], the CC50, lay at 50 µM. For the same molecule, the IC50 turned out to be 8 nM in series [3] and 21 nM in series [1].

In [2], `NCc1[nH]cnc1CN(Cc1nc2ccccc2[nH]1)C1CCCc2cccnc21` (configuration not stated) gave a cytotoxic concentration (CC50) of 5.8 µM. Also, the IC50 in series [3] is more than 1160 nM.

As for `NCc1ocnc1CN(Cc1nc2ccccc2[nH]1)C1CCCc2cccnc21` (configuration not stated), the 50% cytotoxic concentration (CC50) in [2] came out at 32.9 µM. For the same molecule, the IC50 in series [3] came to 2830 nM.

Consider `NCc1ncoc1CN(Cc1nc2ccccc2[nH]1)C1CCCc2cccnc21` (configuration not stated), for which the CC50 in [2] is 64.5 µM. Moreover, the concentration for half-maximal inhibition (IC50) in series [3] was 7.2 nM; in [1], 1.3 nM.

Molecule `NCc1nc(CN(Cc2nc3ccccc3[nH]2)C2CCCc3cccnc32)co1` (configuration not stated) came in with a 50% cytotoxic concentration (CC50) in [2] of 28.5 µM. Also, the IC50 in [3] was 20100 nM.

In turn, `NCc1ncccc1CN(Cc1nc2ccccc2[nH]1)C1CCCc2cccnc21` (configuration not stated) registered a half-maximal cytotoxic concentration (CC50) in series [2] of 150 µM. In addition, the concentration for half-maximal inhibition (IC50) in series [3] and in series [1] was 21 nM in each case.

Molecule `NCc1cscc1N(Cc1nc2ccccc2[nH]1)C1CCCc2cccnc21` (configuration not stated) returned a half-maximal cytotoxic concentration (CC50) in series [2] of 32.9 µM. Further, the half-inhibitory concentration (IC50) in series [3] worked out at 103 nM; in series [1], 13 nM.

`NCc1cocc1N(Cc1nc2ccccc2[nH]1)C1CCCc2cccnc21` (configuration not stated) returned a cytotoxic concentration (CC50) in [2] of 30.2 µM. In addition, the half-inhibitory concentration (IC50) in series [3] was 10.9 nM; in [1] it was 25 nM.
